Measurements taken from ChEMBL document CHEMBL3351724, “Human α1-adrenoceptor subtype selectivity of substituted homobivalent 4-aminoquinolines” (Bioorg Med Chem, 2014).

How the values were obtained:
[1] = target: T1, Alpha-1B adrenergic receptor (Homo sapiens, UniProt P35368); assay: Binding affinity to human alpha1B adrenergic receptor transfected in COS1 cells assessed as compound required to occupy 50% of receptor; type: cell-based, COS-1
T1 sequence (P35368 whole entry): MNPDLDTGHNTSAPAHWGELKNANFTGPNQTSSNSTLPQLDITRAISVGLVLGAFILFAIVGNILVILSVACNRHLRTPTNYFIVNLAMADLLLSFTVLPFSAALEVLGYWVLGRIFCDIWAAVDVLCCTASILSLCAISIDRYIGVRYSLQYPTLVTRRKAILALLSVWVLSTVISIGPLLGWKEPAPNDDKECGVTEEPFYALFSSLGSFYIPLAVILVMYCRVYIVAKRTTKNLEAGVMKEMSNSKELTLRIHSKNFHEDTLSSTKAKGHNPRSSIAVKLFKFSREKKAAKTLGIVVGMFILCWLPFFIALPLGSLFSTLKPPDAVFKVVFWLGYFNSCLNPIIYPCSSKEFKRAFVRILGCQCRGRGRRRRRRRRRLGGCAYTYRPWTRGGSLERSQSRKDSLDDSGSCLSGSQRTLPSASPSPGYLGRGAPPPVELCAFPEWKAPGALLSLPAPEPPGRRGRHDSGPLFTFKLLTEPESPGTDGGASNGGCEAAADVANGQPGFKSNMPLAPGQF

[2] = target: T2, 5-hydroxytryptamine receptor 1A (Homo sapiens, UniProt P08908); assay: Binding affinity to human 5HT1A receptor transfected in COS1 cells assessed as compound required to occupy 50% of receptor; type: cell-based, COS-1
T2 sequence (P08908 whole entry): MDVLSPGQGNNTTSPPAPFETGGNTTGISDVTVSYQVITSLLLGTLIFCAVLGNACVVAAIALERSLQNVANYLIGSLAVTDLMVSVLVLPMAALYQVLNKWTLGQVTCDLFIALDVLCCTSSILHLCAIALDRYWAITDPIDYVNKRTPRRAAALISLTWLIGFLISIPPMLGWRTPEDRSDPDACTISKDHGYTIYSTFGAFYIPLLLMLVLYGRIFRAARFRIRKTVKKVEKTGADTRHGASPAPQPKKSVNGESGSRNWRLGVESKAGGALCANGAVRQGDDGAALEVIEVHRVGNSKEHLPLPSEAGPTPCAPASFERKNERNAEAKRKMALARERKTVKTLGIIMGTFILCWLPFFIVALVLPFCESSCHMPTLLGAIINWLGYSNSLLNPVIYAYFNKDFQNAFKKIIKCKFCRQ

[3] = target: T3, Alpha-1A adrenergic receptor (Homo sapiens, UniProt P35348); assay: Binding affinity to human alpha1A adrenergic receptor transfected in COS1 cells assessed as compound required to occupy 50% of receptor; type: cell-based, COS-1
T3 sequence (P35348 whole entry): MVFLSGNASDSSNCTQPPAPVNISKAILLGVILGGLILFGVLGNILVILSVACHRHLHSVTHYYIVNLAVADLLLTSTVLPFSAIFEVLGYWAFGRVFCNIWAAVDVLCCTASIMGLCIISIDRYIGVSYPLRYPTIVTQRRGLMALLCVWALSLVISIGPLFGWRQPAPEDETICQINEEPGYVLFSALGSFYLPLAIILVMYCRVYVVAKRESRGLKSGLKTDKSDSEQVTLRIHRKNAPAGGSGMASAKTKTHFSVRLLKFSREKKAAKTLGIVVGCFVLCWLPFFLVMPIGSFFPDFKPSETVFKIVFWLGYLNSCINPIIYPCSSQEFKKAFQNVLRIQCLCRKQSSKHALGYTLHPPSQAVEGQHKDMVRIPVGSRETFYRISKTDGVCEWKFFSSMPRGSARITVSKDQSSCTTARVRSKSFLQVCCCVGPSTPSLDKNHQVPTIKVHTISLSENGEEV

[4] = target: T3, Alpha-1A adrenergic receptor; assay: Displacement of [3H]-prazosin from human alpha1A adrenergic receptor transfected in COS1 cells; type: cell-based, COS-1
[5] = target: T4, Alpha-1D adrenergic receptor (Homo sapiens, UniProt P25100); assay: Binding affinity to human alpha1D adrenergic receptor transfected in COS1 cells assessed as compound required to occupy 50% of receptor; type: cell-based, COS-1
T4 sequence (P25100 whole entry): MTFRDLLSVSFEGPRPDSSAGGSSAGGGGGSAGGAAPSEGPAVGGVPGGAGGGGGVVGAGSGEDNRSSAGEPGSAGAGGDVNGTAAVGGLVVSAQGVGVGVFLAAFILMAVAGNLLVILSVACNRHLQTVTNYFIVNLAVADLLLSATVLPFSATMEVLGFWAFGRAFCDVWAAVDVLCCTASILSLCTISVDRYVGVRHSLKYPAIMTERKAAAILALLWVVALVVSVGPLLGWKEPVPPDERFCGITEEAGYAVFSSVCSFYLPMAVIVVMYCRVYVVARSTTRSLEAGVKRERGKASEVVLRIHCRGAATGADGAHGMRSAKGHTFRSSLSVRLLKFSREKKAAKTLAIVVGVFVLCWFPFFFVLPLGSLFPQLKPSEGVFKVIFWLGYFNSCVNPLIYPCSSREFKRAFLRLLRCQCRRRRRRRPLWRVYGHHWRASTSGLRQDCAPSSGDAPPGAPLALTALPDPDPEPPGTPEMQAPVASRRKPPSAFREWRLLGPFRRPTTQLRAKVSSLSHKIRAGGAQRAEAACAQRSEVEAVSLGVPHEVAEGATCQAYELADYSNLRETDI

[6] = target: T4, Alpha-1D adrenergic receptor; assay: Displacement of [3H]-prazosin from human alpha1D adrenergic receptor transfected in COS1 cells; type: cell-based, COS-1
[7] = target: T2, 5-hydroxytryptamine receptor 1A; assay: Displacement of [3H]8-OH-DPAT from human 5HT1A receptor transfected in COS1 cells; type: cell-based, COS-1
[8] = target: T1, Alpha-1B adrenergic receptor; assay: Displacement of [3H]-prazosin from human alpha1B adrenergic receptor transfected in COS1 cells; type: cell-based, COS-1
Homo sapiens [9] = organism: Homo sapiens; assay: Selectivity ratio of Ki for human 5HT1A receptor to Ki for human alpha1A adrenergic receptor
Homo sapiens [10] = organism: Homo sapiens; assay: Selectivity ratio of Ki for human alpha1D adrenergic receptor to Ki for human alpha1A adrenergic receptor
Homo sapiens [11] = organism: Homo sapiens; assay: Selectivity ratio of Ki for human alpha1B adrenergic receptor to Ki for human alpha1A adrenergic receptor

Row | Structure (SMILES) | Ki [1] [nM] | Ki [2] [nM] | Ki [3] [nM] | Ki [4] [nM] | Ki [5] [nM] | Ki [6] [nM] | Ki [7] [nM] | Ki [8] [nM] | Ratio Ki (Homo sapiens [9]) | Ratio Ki (Homo sapiens [10]) | Ratio Ki (Homo sapiens [11])
1 | COc1cccc2c(NCCCCCCCNc3ccnc4c(OC)cccc34)ccnc12 | 155 | 603 | 74 | 74.1 | 759 | 759 | 603 | 155 |  |  | 
2 | c1ccc2c(NCCNc3ccnc4ccccc34)ccnc2c1 | 28 | 2290 | 26 | 26.3 | 331 | 331 | 2290 | 28.2 |  |  | 
3 | COc1cccc2c(NCCNc3ccnc4c(OC)cccc34)ccnc12 | 324 | 3090 | 195 | 195 | 2000 | 2000 | 3090 | 324 |  |  | 
4 | c1ccc2c(NCCCCCCCNc3ccnc4ccccc34)ccnc2c1 | 148 | 832 | 126 | 126 | 309 | 309 | 832 | 148 |  |  | 
5 | COc1ccc2c(NCCCCCCCNc3ccnc4cc(OC)ccc34)ccnc2c1 | 35 | 2820 | 257 | 257 | 229 | 229 | 2820 | 34.7 |  |  | 
6 | Cc1ccc2c(NCCNc3ccnc4cc(C)ccc34)ccnc2c1 | 48 | 3470 | 120 | 120 | 204 | 204 | 3470 | 47.9 |  |  | 
7 | COc1ccc2c(NCCNc3ccnc4cc(OC)ccc34)ccnc2c1 | 50 | 891 | 69 | 69.2 | 214 | 214 | 891 | 50.1 |  |  | 
8 | Cc1ccc2c(NCCCCCCCNc3ccnc4cc(C)ccc34)ccnc2c1 | 51 | 1260 | 112 | 112 | 490 | 490 | 1260 | 51.3 |  |  | 
9 | Cc1ccc2nccc(NCCNc3ccnc4ccc(C)cc34)c2c1 | 19 | 617 | 135 | 135 | 490 | 490 | 617 | 19.1 |  |  | 
10 | Cc1ccc2nccc(NCCCCCCCNc3ccnc4ccc(C)cc34)c2c1 | 151 | 1100 | 617 | 617 | 479 | 479 | 1100 | 151 |  |  | 
11 | Cc1cccc2c(NCCNc3ccnc4c(C)cccc34)ccnc12 | 40 | 1170 | 7 | 7.41 | 479 | 479 | 1170 | 39.8 | 168 | 68 | 6
12 | COc1ccc2nccc(NCCCCCCCNc3ccnc4ccc(OC)cc34)c2c1 | 148 | 1380 | 316 | 316 | 372 | 372 | 1380 | 148 |  |  | 
